Data reported in US20180265934A1, “COINCIDENCE REPORTER GENE SYSTEM” (The United States of America, as represented by the …, priority 2013, published 2018).
Counter-ions that a name gives are not always drawn. Like-named read-outs stand apart in the source and are kept apart here. Where a SMILES comes first, the peptide text is derived from it. The star is where a group is joined. Cbz = O=C(OCc1ccccc1)*

Legend:
[1] = system: cAMP-response element (CRE) / CREB pathway; experiment: LOPAC1280 qHTS, 4×CRE-driven FLuc-P2A-RLuc coincidence reporter (pCI-6.24) in GripTite 293 MSR cells; format: cell-based
Protocol: This protocol measures bioluminescence derived from both FLuc and RLuc expression from a single assay. […] Sixteen hours after transfection, cells were trypsinized and then dispensed at 2,000 cells/20 μL/well in 384-well tissue culture treated white/solid bottom plates (Greiner Bio-One North America, Monroe, N.C.). The assay plates were incubated at 37° C. for 10 hours before adding the DUAL-GLO detection reagent (Promega). Luminescence from luciferase activity was detected by using a VIEWLUX plate reader (PerkinElmer, Waltham, Mass.).
Sixteen hours after transfection, cells were trypsinized and then dispensed at 500 cells/4 μL/well in 1,536-well tissue culture treated white/solid bottom plates (Greiner Bio-One North America) using a multidrop combi dispenser (Thermo Fisher Scientific). […] The assay plates were incubated at 37° C. for 10 hours before adding the DUAL-GLO detection reagent (3.5 μL+3.5 μL for each well) (Promega). Luminescence from luciferase activity was detected by using VIEWLUX (PerkinElmer). Each experimental plate contained forskolin as a positive control and DMSO as a negative control. Percentage activity was defined as the percentage signal relative to forskolin (100%) and DMSO (0%).

[2] = system: cAMP-response element (CRE), adenylyl cyclase signaling; experiment: Compound test, 24-point titration, 4×CRE-driven FLuc-P2A-RLuc (pCI-6.24), 384-well; format: cell-based; settings: PTC124 on FLuc, BTS on RLuc; relative to non-treated control
Protocol: For the compound test, forskolin, PTC124 and BTS were prepared in a 24-point intraplate titration format and pre-diluted in the cell culture medium. Purified pCI-6.24 construct was transfected into GRIPTITE 293 MSR cells (Life Technologies). Sixteen hours post transfection, cells were trypsinized and then dispensed at 2,000 cells/15 μL/well in 384-well tissue culture treated white/solid bottom plates (Greiner Bio-One North America). Five μL of pre-diluted compound was transferred into assay plates, resulting in a final concentration ranging from 0.027 nM to 227 μM (forskolin) and 0.011 nM to 91 μM (PTC124 and BTS). The assay plates were incubated at 37° C. for 10 hours. FLuc and RLuc activities were then detected using DUAL-GLO reagent (Promega) and a VIEWLUX plate reader (PerkinElmer). Concentration-response curves and concentrations of half-maximal activity (EC50) for each compound were generated by using PRISM 4 software (GraphPad Software, Inc., La Jolla, Calif.).

[3] = system: PARK2 (Parkin) gene expression; experiment: Compound library screening, Parkin coincidence reporter cell line (FLuc-P2A-NLuc in PARK2 locus, BE(2)-M17 cells), 1536-well; format: cell-based, human; settings: 24 h, titration
Protocol: Construction of the Parkin coincidence reporter cell line by TALEN-mediated genome editing was carried out as follows. To generate a double-strand cleavage of the genomic DNA in the first codon of the PARK2 gene, constructs encoding transcription activator-like effector nuclease (TALEN) pairs (Right and Left) encoding components of the heterodimeric FokI nuclease were generated as described by Huang et al., Nature Biotechnology, 29: 699-700 (2011). The TALEN pair was designed to generate a double-strand cleavage at or near the first translation codon (ATG) within the Parkin gene. These constructs were transfected with Lipofectamine LTX (Life Technologies) into BE(2)-M17 cells (ATCC) […] along with a GFP-expressing marker plasmid and the coincidence reporter donor plasmid. After 48 hours of incubation in a tissue culture incubator, GFP-positive cells were sorted by FACS analysis and single clones were isolated and expanded. Once sufficient cell populations for each clone were achieved, analysis of correct genomic insertion of the Fluc-P2A-NLuc-PEST-PolyA coincidence reporter cassette that replaced the “ATGATAG” (SEQ ID NO: 362) sequence at the […] of the PARK2 gene exon 1 was ascertained by PCR and DNA sequencing of genomic DNA preparations (QIAGEN).
Compound library screening in 1536-well plates was carried out as follows. The Parkin coincidence reporter cell line was seeded at a density of 2000 cell/well into white, solid bottom, tissue-culture treated (Greiner Bio-One), 1536-well microplates in a total of 5 μL/well of culture medium. After a 16 hour incubation in a tissue-culture incubator, a compound pin tool (Wako) was used to transfer 20 nL of compound dissolved in DMSO for library plates to the assay plates. Compounds were present in either a 6 or 12-point titration in the library plates. DMSO vehicle, CCCP, and PTC-124 were also added to the designated control well. After a 24 hour incubation in the tissue culture incubator, the volume in each well of both plates was reduced to 2 μL with a microplate aspiration system (BioTek) and then 2 μL of Firefly Luciferase assay reagent (Promega) was added to every well each plate and luminescent signal from each well of each plate was measured on a VIEWLUX plate reader (PerkinElmer). Following the first read, 2 μL of NanoLuc assay reagent (Promega) including a proprietary firefly luciferase inhibitor (to quench the firefly reaction) was added to every well of each plate. After a second 15 minute incubation at room temperature, the NanoLuc signal from each well of each plate was measured on the VIEWLUX. Raw luminescent signal is expressed as a % of the positive control (10 uM CCCP for NanoLuc and 500 nM PTC-124 for FLuc).

[4] = Table 5, coincident activators; FLuc readout, 10 h, ~4 nM to 57 μM; read-out: FLuc EC50
[5] = Table 5, coincident activators; RLuc readout, 10 h, ~4 nM to 57 μM; read-out: RLuc EC50
[6] = GripTite 293 MSR, 10 h, Table 5, coincident activators; FLuc readout, 10 h, ~4 nM to 57 μM; read-out: FLuc EC50
[7] = GripTite 293 MSR, 10 h, Table 5, coincident activators; RLuc readout, 10 h, ~4 nM to 57 μM; read-out: RLuc EC50
[8] = Table 6, compounds activating RLuc only; RLuc readout, 10 h; read-out: RLuc EC50
[9] = GripTite 293 MSR; Table 6, compounds activating RLuc only; RLuc readout, 10 h; read-out: RLuc EC50
[10] = GripTite 293 MSR, 10 h, Table 6, compounds activating RLuc only; RLuc readout, 10 h; read-out: RLuc EC50

Row | SMILES | Ratio F/R ([1]; FLuc EC50 / RLuc EC50, Table 5) | EC50 [1, 6] [µM] | EC50 [1, 7] [µM] | further results
1 | NC(=S)c1ccc[n+]([C@@H]2OC(COP(=O)([O-])OP(=O)(O)OC[C@H]3O[C@@H](n4cnc5c(N)ncnc54)[C@H](OP(=O)(O)O)[C@@H]3O)C(O)C2O)c1 (stereo in doubt) [compound 15, Thio-NADP sodium] | 0.95 |  |  | EC50 [1, 4]: 2.39 µM; EC50 [1, 5]: 2.51 µM
2 | Cc1ccc(S(=O)(=O)NCc2ccccc2)cc1 [BTS] |  |  |  | effect on reporter activity by reporter stabilization [2]: increase the activity of the reporters
3 | CC(C)C[C@@H](C=O)NC(=O)[C@H](CC(C)C)NC(=O)[C@H](CC(C)C)NC(=O)OCc1ccccc1 [MG-132] (Cbz-Leu-Leu-Leu-aldehyde) |  |  |  | coincident reporter response (FLuc and NLuc) [3]: do not elicit a coincident reporter response; signal obtained through reporter interference [3]: NLuc signal is obtained through reporter interference
4 | O=c1c(O)c(-c2ccc(O)c(O)c2)oc2cc(O)cc(O)c12 [Quercetin] |  |  |  | coincident reporter response (FLuc and NLuc) [3]: elicits a coincidence response from both FLuc and NLuc; modulation of endogenous Parkin expression [3]: genuine modulator of endogenous Parkin expression
5 | Oc1ccc(C=Cc2cc(O)cc(O)c2)cc1 [Resveratrol] |  |  |  | coincident reporter response (FLuc and NLuc) [3]: do not elicit a coincident reporter response; signal obtained through reporter interference [3]: FLuc signal is obtained through reporter interference
6 | Cc1ccccc1CNc1ncnc2c1ncn2[C@@H]1O[C@H](CO)[C@@H](O)[C@H]1O [compound 3, Metrifudil] | 2.20 | 1.34 | 0.61 | 
7 | Nc1nc(Nc2ccccc2)nc2c1ncn2[C@@H]1O[C@H](CO)[C@@H](O)[C@H]1O [compound 4, 2-Phenylaminoadenosine] | 0.95 | 10.7 | 11.2 | 
8 | OC[C@H]1O[C@@H](n2cnc3c(NC4CCCCC4)ncnc32)[C@H](O)[C@@H]1O [compound 5, N6-Cyclohexyladenosine] | 0.67 | 16.9 | 25.1 | 
9 | OC[C@H]1O[C@@H](n2cnc3c(NC4CCCC4)ncnc32)[C@H](O)[C@@H]1O [compound 6, N6-Cyclopentyladenosine] | 0.75 | 0.95 | 1.26 | 
10 | OC[C@H]1O[C@H](n2cnc3c(N[C@H]4CCC[C@@H]4O)ncnc32)[C@H](O)[C@@H]1O [compound 7, GR 79236X] | 0.85 |  |  | EC50 [1, 4]: 2.69 µM; EC50 [1, 5]: 3.16 µM
11 | Nc1ccc(CCNc2ncnc3c2ncn3[C@@H]2O[C@H](CO)[C@@H](O)[C@H]2O)cc1 [compound 8, N6-2-(4-Aminophenyl)ethyladenosine] | 1.56 | 1.45 | 0.93 | 
12 | CNC(=O)[C@H]1O[C@@H](n2cnc3c(NCc4ccc(N)cc4)ncnc32)[C@H](O)[C@@H]1O [compound 9, AB-MECA] | 3.51 |  |  | EC50 [1, 4]: 1.51 µM; EC50 [1, 5]: 0.43 µM
13 | Nc1nc(Cl)nc2c1ncn2[C@@H]1O[C@H](CO)[C@@H](O)[C@H]1O [compound 11, 2-Chloroadenosine] | 1.13 | 0.43 | 0.38 | 
14 | CNc1ncnc2c1ncn2[C@@H]1O[C@H](CO)[C@@H](O)[C@H]1O [compound 12, N6-Methyladenosine] | 1.26 | 16.7 | 13.3 | 
15 | CCNC(=O)[C@H]1O[C@@H](n2cnc3c(N)ncnc32)[C@H](O)[C@@H]1O [compound 13, 5′-N-Ethylcarboxamidoadenosine] | 0.56 |  |  | EC50 [1, 4]: 0.3 µM; EC50 [1, 5]: 0.54 µM
16 | CCCCC#Cc1nc(NC)c2ncn([C@@H]3O[C@H](CO)[C@@H](O)[C@H]3O)c2n1 [compound 14, HEMADO] | 1.78 |  |  | EC50 [1, 4]: 2.69 µM; EC50 [1, 5]: 1.51 µM
17 | NC(=O)C1=CN([C@@H]2O[C@H](COP(=O)(O)OP(=O)(O)OC[C@H]3O[C@@H](n4cnc5c(N)ncnc54)[C@H](OP(=O)(O)O)[C@@H]3O)[C@@H](O)[C@H]2O)C=CC1 [compound 16, NADPH tetrasodium] | 0.81 |  |  | EC50 [1, 4]: 18.2 µM; EC50 [1, 5]: 22.4 µM
18 | Nc1nc(Cl)nc2c1ncn2[C@@H]1O[C@H](COP(=O)([O-])OP(=O)([O-])OP(=O)([O-])[O-])[C@@H](O)[C@H]1O.[Na+].[Na+].[Na+].[Na+] [compound 17, 2-Chloroadenosine triphosphate tetrasodium] | 2.96 | 11.5 | 3.89 | 
19 | CNc1cc(NS(=O)(=O)c2ccc(N)cc2)nc(NC)n1 [compound 20, Ro 04-6790 hydrochloride] |  |  |  | EC50 [1, 8]: 2.05 µM
20 | C[C@H](Cc1ccccc1)Nc1ncnc2c1ncn2[C@@H]1O[C@H](CO)[C@@H](O)[C@H]1O [cpd 1, R(−)-N6-(2-Phenylisopropyl)adenosine] | 3.32 |  |  | EC50 [1, 4]: 9.37 µM; EC50 [1, 5]: 2.82 µM
21 | OC[C@H]1O[C@@H](n2cnc3c(Nc4ccccc4)ncnc32)[C@H](O)[C@@H]1O [cpd 2, N6-Phenyladenosine] | 0.87 | 12.7 | 14.6 | 
22 | C#CCOC(=O)C1=CCCN(C)C1 [cpd 18, Arecaidine propargyl ester hydrobromide (APE)] | 1.16 |  |  | EC50 [1, 4]: 3.59 µM; EC50 [1, 5]: 3.09 µM; FLuc and RLuc signal outputs in the screen ([1]; qHTS, both reporters): coincident FLuc and RLuc signal outputs
23 | NC(=O)COc1c(F)cc(SCCNS(=O)(=O)c2ccccc2)cc1F [cpd 21, 2,6-Difluoro-4-[2-(phenylsulfonylamino)ethylthio]phenoxyacetamide] |  |  |  | EC50 [1, 9]: 21.4 µM
24 | NCCNS(=O)(=O)c1cccc2c(Cl)cccc12 [cpd 22, A3 hydrochloride] |  |  |  | EC50 [1, 8]: 15.8 µM
25 | COc1ccc(Cl)cc1C(=O)NCCc1ccc(S(=O)(=O)NC(=O)NC2CCCCC2)cc1 [cpd 23, Glybenclamide] |  |  |  | EC50 [1, 10]: 30.4 µM
26 | CC1=NS(=O)(=O)c2cc(Cl)ccc2N1 [cpd 24, Diazoxide] |  |  |  | EC50 [1, 10]: 9.15 µM
27 | N#CC(=C(/N)Sc1ccccc1N)/C(C#N)=C(\N)Sc1ccccc1N [cpd 25, U0126] |  |  |  | EC50 [1, 9]: 8.49 µM
28 | O=C(c1ccc(OCCN2CCCCC2)cc1)c1c(-c2ccc(O)cc2)sc2cc(O)ccc12 [cpd 26, Raloxifene hydrochloride] |  |  |  | EC50 [1, 10]: 12 µM
